The text below walks through data of patent US20230286973A1, “PROTEIN SECRETION INHIBITORS” (KEZAR LIFE SCIENCES, priority 2020, published 2023).

Series [1] relates to PD1-ss+10aa/Gaussia Luciferase. The experiment in a line: Dox-Induced PD1-ss-Gluc Assay. Type of series: cell-based. The following applies: 24 hr Dox induction; 293FRT/TO cells; read-out: 24 hr Dox Inducible PD1ssGluc 293FRT/TO: Mean IC50. The procedure, abridged: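 Flp-In 293 T-REx, stable line; Tet-regulated PD1-ss+10aa fused to Gaussia luciferase; plated day prior; cpd + doxycycline in DMSO/media; 37 °C, 5% CO2.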

Series [2] concerns TNFα-FL/Gaussia Luciferase. The experiment in a line: Dox Induced TNFα-FL-Gluc Assay. Type of series: cell-based. The following applies: for pIC50: 24 hr Dox induction, 293FRT/TO cells, read-out: 24 hr Dox Inducible TNFaFLGluc 293FRT/TO: Mean IC50; for 24 hr Dox Inducible TNFaFLGluc 293FRT/TO: TNF/PD1: ratio of TNFaFLGluc IC50 to PD1ssGluc IC50. The procedure, abridged: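 Flp-In 293 T-REx cells stably carrying doxycycline-inducible full-length TNFα (aa 1-233) fused to Gaussia luciferase. Plated the day before, then treated with compound dilutions in doxycycline-containing medium at 37° C, 5% CO2.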

Series [3] relates to HER3-ss+4aa/Gaussia Luciferase. The experiment in a line: Dox-Induced Her3-ss-Gluc Assay. The format is cell-based. Conditions: 24 hr Dox induction; 293FRT/TO cells; read-out: 24 hr Dox Inducible Her3(ss + 4)Gluc 293FRT/TO: Mean IC50. The procedure, abridged: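 Stable Flp-In 293 T-REx cells carried a doxycycline-inducible HER3 signal sequence (+4 aa) fused to Gaussia luciferase. Cells were plated the day before the assay. Compound dilutions in DMSO/media containing doxycycline were then added, and plates were incubated at 37 °C, 5% CO2.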

Series [4] concerns IL-2-FL/Gaussia Luciferase. The experiment in a line: Dox Induced IL2-FL-Gluc Assay. Type of series: cell-based. Conditions: for pIC50: 24 hr Dox induction, 293FRT/TO cells, read-out: 24 hr Dox Inducible IL2FLGluc 293FRT/TO: Mean IC50; for 24 hr Dox Inducible IL2FLGluc 293FRT/TO: IL2/PD1: ratio of IL2FLGluc IC50 to PD1ssGluc IC50. The procedure, abridged:
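Stable Flp-In 293 T-REx cells carrying doxycycline-inducible full-length IL-2 (aa 1-153) fused to Gaussia luciferase, plated the day before assay. Compound dilutions added in medium containing doxycycline, incubated at 37 °C, 5% CO2. Undefined stereocentres mean data refer to stereoisomer mixtures.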

For series [5], the system named is multiple myeloma cell line NCI-H929. The experiment in a line: H929 Cell Viability Assay. Type of series: cell-based, human. Conditions: Homo sapiens, NCI-H929, 48 h, NCI-H929 cells, Celltiter-Glo. In a few lines:
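NCI-H929 cells in RPMI 1640 with 10% FBS were treated with compound dilutions for 48 h at 37° C, 5% CO2. Viability was read by CellTiter-Glo luminescence. Undefined stereocentres denote stereoisomer mixtures.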

The subject of series [6] is multiple myeloma cell line U266B1. The experiment in a line: U266 Cell Viability Assay. Type of series: cell-based, human. Conditions: Homo sapiens, U-266, 48 h, U266B1 cells, Celltiter-Glo. In a few lines: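 U266B1 multiple myeloma cells in RPMI 1640/10% FBS were treated with compound dilutions for 48 h at 37 °C, 5% CO2. Viability was measured by CellTiter-Glo luminescence; compounds drawn without stereochemistry were tested as stereoisomer mixtures.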

A short description of series [7]: Liver Microsome Stability Assay (rat). Conditions: rat liver microsomes, with NADPH, 1.0 uM compound.
Method: (§1) Stability of a compound was assessed in the presence of liver microsomes from various sources—mouse, rat, monkey and human liver microsomes. 1.0 uM compound, 0.4% DMSO in 0.1 M Potassium Phosphate with 1.0 mg/mL liver microsomes, were incubated at 37° C. with or without 1 mM NADPH. The samples were quenched at 0, and 30 minutes.
Series [8] is described as follows: Liver Microsome Stability Assay (mouse). The following applies: mouse liver microsomes, with NADPH, 1.0 uM compound.
Method: as §1
Series [9] in a line: Liver Microsome Stability Assay (human). Conditions: human liver microsomes, with NADPH, 1.0 uM compound.
Method: as §1
Series [10] is described as follows: Liver Microsome Stability Assay (monkey). The following applies: monkey liver microsomes, with NADPH, 1.0 uM compound.
Method: as §1

pEC50, pIC50: −log10 of the molar value.

As for `O=C(Nc1nc(/C=C/c2ccon2)cs1)c1cccn1Cc1ccncc1` [Compound B5, (E)-N-(4-(2-(isoxazol-3-yl)vinyl)thiazol-2-yl)-1-(pyridin-4-ylmethyl)-1H-pyrrole-2-carboxamide], the pIC50 in series [1] is 5.67; in series [2] it was < 4.60; in [3], < 4.60; in series [4] it was < 4.60. In series [2], the “24 hr Dox Inducible TNFaFLGluc 293FRT/TO: TNF/PD1” value is reported as >11.6. Further, the “24 hr Dox Inducible IL2FLGluc 293FRT/TO: IL2/PD1” value in series [4] is 12. Besides, the pEC50 in series [5] and in series [6] was < 4.60 throughout. Besides, the “Liver Microsome Stability (Multiple Species): Rat - % Remaining after 30 min w/NADPH” value in [7] came out at 0.69%. Besides, in series [8], the “Liver Microsome Stability (Multiple Species): Mouse - % Remaining after 30 min w/NADPH” value is reported as 1.26%. Besides, the “Liver Microsome Stability (Multiple Species): Human - % Remaining after 30 min w/NADPH” value in series [9] was 0.87%. Also, the “Liver Microsome Stability (Multiple Species): Monkey - % Remaining after 30 min w/NADPH” value in [10] turned out to be 0.47%.
`CN1CCOC(/C=C/c2csc(NC(=O)c3cccn3Cc3ccncc3)n2)C1` (stereo not drawn) [Compound B6, (E)-N-(4-(2-(4-methylmorpholin-2-yl)vinyl)thiazol-2-yl)-1-(pyridin-4-ylmethyl)-1H-pyrrole-2-carboxamide]: the pIC50 in [1] was 5.36; in series [2], < 4.60; in series [3], < 4.60; in series [4], < 4.60. For the same compound, the “24 hr Dox Inducible TNFaFLGluc 293FRT/TO: TNF/PD1” value in series [2] is >5.68. Further, in series [4], the “24 hr Dox Inducible IL2FLGluc 293FRT/TO: IL2/PD1” value stood at 5.7. In addition, the pEC50 in series [5] and in [6] was < 4.60 throughout. Besides, the “Liver Microsome Stability (Multiple Species): Rat - % Remaining after 30 min w/NADPH” value in series [7] worked out at 13.2%. Moreover, in series [8], the “Liver Microsome Stability (Multiple Species): Mouse - % Remaining after 30 min w/NADPH” value is on record as 10%. The “Liver Microsome Stability (Multiple Species): Human - % Remaining after 30 min w/NADPH” value in series [9] was found to be 5.85%. In series [10], the “Liver Microsome Stability (Multiple Species): Monkey - % Remaining after 30 min w/NADPH” value came out at 6.93%.
`O=C(Nc1nc(/C=C/C2CCc3ccccc3N2)cs1)c1cccn1Cc1ccncc1` (stereo not drawn) [Compound B7, (E)-1-(pyridin-4-ylmethyl)-N-(4-(2-(1,2,3,4-tetrahydroquinolin-2-yl)vinyl)thiazol-2-yl)-1H-pyrrole-2-carboxamide]: the pIC50 is 6.48 in [1], 5.10 in series [2], 6.10 in series [3] and 5.90 in series [4]. The “24 hr Dox Inducible TNFaFLGluc 293FRT/TO: TNF/PD1” value in [2] stood at 23.9. For the same compound, the “24 hr Dox Inducible IL2FLGluc 293FRT/TO: IL2/PD1” value in [4] came out at 3.8. The pEC50 was 4.66 in [5] and 4.67 in series [6]. Besides, in series [7], the “Liver Microsome Stability (Multiple Species): Rat - % Remaining after 30 min w/NADPH” value is 2.33%. Moreover, the “Liver Microsome Stability (Multiple Species): Mouse - % Remaining after 30 min w/NADPH” value in series [8] stood at 12.3%. In addition, the “Liver Microsome Stability (Multiple Species): Human - % Remaining after 30 min w/NADPH” value in series [9] came out at 1.32%. Also, the “Liver Microsome Stability (Multiple Species): Monkey - % Remaining after 30 min w/NADPH” value in [10] was 0.74%.
With `CN1c2ccccc2CCC1/C=C/c1csc(NC(=O)c2cccn2Cc2ccncc2)n1` (stereo not drawn) [Compound B8, (E)-N-(4-(2-(1-methyl-1,2,3,4-tetrahydroquinolin-2-yl)vinyl)thiazol-2-yl)-1-(pyridin-4-ylmethyl)-1H-pyrrole-2-carboxamide], the pIC50 in series [1] was 6.58; in series [2] it was 5.45; in [3], 6.21; in series [4], 6.06. For the same compound, the “24 hr Dox Inducible TNFaFLGluc 293FRT/TO: TNF/PD1” value in series [2] is recorded as 13.6. For the same compound, the “24 hr Dox Inducible IL2FLGluc 293FRT/TO: IL2/PD1” value in [4] came out at 3.4. In addition, the pEC50 in series [5] was 4.62; in [6], < 4.60. The “Liver Microsome Stability (Multiple Species): Rat - % Remaining after 30 min w/NADPH” value in [7] is 7.12%. For the same compound, the “Liver Microsome Stability (Multiple Species): Mouse - % Remaining after 30 min w/NADPH” value in series [8] turned out to be 5.24%. For the same compound, the “Liver Microsome Stability (Multiple Species): Human - % Remaining after 30 min w/NADPH” value in [9] is 0.69%. Further, in series [10], the “Liver Microsome Stability (Multiple Species): Monkey - % Remaining after 30 min w/NADPH” value amounted to 0.47%.
